Measured values reported in patent publication US20130245084A1, “CALCIUM-SENSING RECEPTOR-ACTIVE COMPOUNDS” (LEO PHARMA A/S, priority 2010, published 2013).

Each compound was assayed against T1, human CaSR (Homo sapiens, UniProt P41180) (assay: Functional whole cell assay (modulation of human CaSR), IP1 accumulation in CHO-K1 cells). Settings: CHO-K1 cells stably expressing human CaSR, final Ca2+ 1.9 mM, IP1 HTRF; concentration giving 50% of maximum agonistic response.
T1 sequence (P41180 20-1078): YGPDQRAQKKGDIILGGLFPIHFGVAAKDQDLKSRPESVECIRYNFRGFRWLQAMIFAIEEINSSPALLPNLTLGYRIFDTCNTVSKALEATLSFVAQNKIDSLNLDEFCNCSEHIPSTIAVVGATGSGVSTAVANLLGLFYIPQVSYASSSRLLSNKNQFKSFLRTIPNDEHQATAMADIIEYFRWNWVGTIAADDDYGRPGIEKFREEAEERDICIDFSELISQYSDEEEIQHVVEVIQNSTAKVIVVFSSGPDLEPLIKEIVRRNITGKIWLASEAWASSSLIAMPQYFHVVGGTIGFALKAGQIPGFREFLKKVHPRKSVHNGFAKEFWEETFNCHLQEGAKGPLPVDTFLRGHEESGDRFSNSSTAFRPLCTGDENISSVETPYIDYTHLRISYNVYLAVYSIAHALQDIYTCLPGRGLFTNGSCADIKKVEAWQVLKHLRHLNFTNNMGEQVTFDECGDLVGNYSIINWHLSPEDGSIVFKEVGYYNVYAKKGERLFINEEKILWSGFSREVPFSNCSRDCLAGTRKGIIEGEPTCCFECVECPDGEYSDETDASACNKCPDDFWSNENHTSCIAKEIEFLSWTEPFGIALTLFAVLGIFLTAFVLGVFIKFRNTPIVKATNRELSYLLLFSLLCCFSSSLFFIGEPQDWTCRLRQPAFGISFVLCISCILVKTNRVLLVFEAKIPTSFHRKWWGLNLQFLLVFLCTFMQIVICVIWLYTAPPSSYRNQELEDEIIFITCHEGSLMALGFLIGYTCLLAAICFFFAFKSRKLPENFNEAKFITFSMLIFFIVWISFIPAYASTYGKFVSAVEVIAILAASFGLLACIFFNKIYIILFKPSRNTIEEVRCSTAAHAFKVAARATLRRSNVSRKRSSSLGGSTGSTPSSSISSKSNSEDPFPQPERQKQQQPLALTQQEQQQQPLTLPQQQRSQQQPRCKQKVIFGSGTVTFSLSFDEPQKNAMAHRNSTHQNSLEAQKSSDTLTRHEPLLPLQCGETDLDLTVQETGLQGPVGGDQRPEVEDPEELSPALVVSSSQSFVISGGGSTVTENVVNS
Assay type: cell-based
Excerpt: The assay investigates a compound's functional ability to act as a biological positive modulator on the human CaSR. Activation of the receptor expressed on CHO-K1 cells is detected through the G alpha q pathway, the activation of phospholipase C and the accumulation of intracellular inositol phosphate (IP) as described earlier [Sandrine Ferry, Bruno Chatel, Robert H. Dodd, Christine Lair, Danielle Gully, Jean-Pierre Maffrand, and Martial Ruat. Effects of Divalent Cations and of a Calcimimetic on Adrenocorticotropic Hormone Release in Pituitary Tumor Cells. Biochemical and biophysical research Communications 238, 866-873 (1997)]. The human CaSR is stably expressed on a CHO-K1 cell clone, stimulated with a basal level of calcium and challenged with the tested compound. The level of IP1 is determined using the IP-One Terbium htrf kit (Cisbio, France). CHO-K1 cells not transfected with the CaSR fail to elicit an IP1 response upon calcium and/or compound stimulation.
The ORF coding for the human CaSR (genebank: NM_000388) was acquired from Invitrogen Corp, USA and subsequently cloned into the mammalian expression vector pCDA3.1.
CHO-K1 cells were transfected using Lipofectamine according to manufacturer's protocol (400.000 cells/well were seeded in a 6-well plate and transfected after 24 hours using 2 μg DNA and 5 μl lipofectamine). After another 24 hours the cells were detached, seeded and subjected to 1 mg/ml of G-418. Following 7 days growth single clones were picked, the CaSR expression evaluated using the 5C10 antibody against CaSR, the clones with the highest expression were selected and tested for functional response. The preferred clone was cultured according to standard procedures described in ATCC (American Type Culture Collection) protocols for CHO-K1 with the addition of 500 μg/ml G-418.
On the assay day, cells were thawed, harvested and resuspended to 4*10^6 cells/ml in stimulation buffer (containing: Hepes 10 mM, MgCl2 0.5 mM, KCl 4.2 mM, NaCl 146 mM, glucose 5.5 mM, LiCl 50 mM, BSA 0.5% at pH 7.4). Ten μl cell solution was pipetted into wells of a white 384-well plate (Perkin Elmer Optiplate) containing 2 μl compound diluted in assay buffer (containing: Hepes 10 mM, MgCl2 0.5 mM, KCl 4.2 mM, NaCl 146 mM, glucose 5.5 mM, LiCl 50 mM, CaCl2 11.4 mM at pH 7.4), resulting in a final Ca^2+ concentration of 1.9 mM. After compound stimulation for 1 hour at 37° C. and 15 min at room temperature, 10 ul of IP-One assay detection reagent (prepared as described by the IP-One assay kit manufacturer) was added and the plate was incubated for another 1 hour at room temperature. Finally the plate was read using a Perkin Elmer EnVision, according to the protocol supplied by the IP-One assay kit manufacturer. The FRET ratio was calculated by dividing the 665 nm emission signal with that of the 615 nm.
The molar concentration of a compound that produces 50% of the maximum agonistic response (the […] value) is calculated according to the equation “General sigmoidal curve with Hill slope, a to d” (Equation 1). This model describes a sigmoidal curve with an adjustable baseline. The equation can be used to fit curves where response is either increasing or decreasing with respect to the independent variable, X.
y=(a−d)/(1+(x/c)̂b)+d Equation 1.

EC50 [nM] | SMILES
< 200 | COc1cc([C@@H](C)N[C@H]2CC[C@@H](c3ccc(C(=O)NCCNC(=O)c4nc[nH]n4)cc3)C2)ccc1F [Compound 101, N-[2-[[4-[(1R,3S)-3-[[(1R)-1-(4-Fluoro-3-methoxy-phenyl)ethyl]-amino]cyclopentyl]benzoyl]amino]ethyl]-1H-1,2,4-triazole-3-carboxamide]
200 to 1000 | COc1cc([C@@H](C)N[C@H]2CC[C@@H](c3ccc(C(=O)NCCNC(=O)C(O)CO)cc3)C2)ccc1F (stereo partly drawn) [Compound 102, N-[2-(2,3-Dihydroxypropanoylamino)ethyl]-4-[(1R,3S)-3-[[(1R)-1-(4-fluoro-3-methoxy-phenyl)ethyl]amino]cyclopentyl]benzamide]
< 200 | COc1cc([C@@H](C)N[C@H]2CC[C@@H](c3ccc(C(=O)NCCNC(=O)CO)cc3)C2)ccc1F [Compound 103, 4-[(1R,3S)-3-[[(1R)-1-(4-Fluoro-3-methoxy-phenyl)ethyl]amino]cyclopentyl]-N-[2-[(2-hydroxyacetyl)amino]ethyl]benzamide]
< 200 | COc1cc([C@@H](C)N[C@H]2CC[C@@H](c3ccc(C(=O)NCCNC(=O)C(N)=O)cc3)C2)ccc1F [Compound 104, N-[2-[[4-[(1R,3S)-3-[[(1R)-1-(4-Fluoro-3-methoxy-phenyl)ethyl]amino]cyclopentyl]benzoyl]amino]ethyl]oxamide]
< 200 | COc1cc([C@@H](C)N[C@H]2CC[C@@H](c3ccc(C(=O)NCCNC(=O)CS(C)(=O)=O)cc3)C2)ccc1F [Compound 105, 4-[(1R,3S)-3-[[(1R)-1-(4-Fluoro-3-methoxy-phenyl)ethyl]amino]-cyclopentyl]-N-[2-[(2-methylsulfonylacetyl)amino]ethyl]benzamide]
